Inconclusive results are not listed. The source made the active and inactive calls.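 The calls were made as follows: active = Compounds that reduce signal, with fitted half-maximal dose at or under twice the top valid tested dose; inconclusive = Poor fit, or flat curve losing 30 to 70% of signal; inactive = Potency past limit, flat within 30%, or opposite direction.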

The first test can be described thus: viability loss in HEK293T cells – cell-based, ATP luminescence, cherry-pick samples, cytotoxicity control, dose response (AID 687005). As to conditions: HEK293T viability, ATP luminescence (CellTiter-Glo), 48 h; at 23.5 µM (top of the series).
`Cc1noc(C)c1NC(=O)Nc1ccc2c(c1)C(=O)N(C)[C@H]1CC[C@H](CC(=O)N[C@H]3CCN(Cc4ccccc4)C3)O[C@H]1CO2`: the activity change, negative = cytotoxicity is -3.29% (inactive).
Same read-out and setting: to `COC(=O)C1=C(C)N(Cc2ccccc2)C(=S)NC1c1ccc(Br)cc1` (stereo unspecified) belongs -9.89% (inactive); to `C[C@H]1CN([C@@H](C)CO)C(=O)Cc2cc(NC(=O)C3CC3)ccc2O[C@@H]1CN(C)C(=O)Nc1cccc2ccccc12`, -3.99% (inactive); to `C[C@@H]1CCCCO[C@@H](CN(C)Cc2ccc(C(F)(F)F)cc2)[C@@H](C)CN([C@@H](C)CO)C(=O)c2cc(NS(=O)(=O)c3cn(C)cn3)ccc2O1`, -31.2% (inactive).

The same test, now with this note: HEK293T viability, ATP luminescence (CellTiter-Glo), 48 h; at 26 µM (top of the series).
Consider `C[C@@H]1CN([C@H](C)CO)C(=O)Cc2cc(NC(=O)CCCCCC(=O)Nc3ccccc3N)ccc2O[C@H]1CN(C)C(=O)Nc1ccccc1`, for which the activity change, negative = cytotoxicity was 0.594% (inactive).
Still for that read-out and setting: the same measure for `Fc1cccc(CCN2C(=S)NC[C@@H]2Cc2ccccc2)c1`: -28.1% (inactive).
On the same count and under the same terms, to `O=C(NC[C@@H]1[C@H](c2ccccc2)[C@@H](CO)N1C(=O)Cc1cccnc1)C1CCC1` belongs 8.39% (inactive); to `O=C(c1c(Cl)cccc1Cl)N1CCN(c2ccccn2)CC1`, -3.99% (inactive); to `COc1cccc(S(=O)(=O)Nc2ccc3c(c2)[C@H]2C[C@H](CC(=O)NCc4ccccc4F)O[C@@H](CO)[C@H]2O3)c1`, 2.6% (inactive).
The same measure, in the same setting: to `C[C@@H]1CN([C@@H](C)CO)C(=O)c2cc(-c3cncnc3)cnc2O[C@H]1CN(C)C(=O)CN1CCOCC1` belongs -25.3% (inactive).
Take `CC(=O)c1cccc(NC(=S)NC2CCCCC2)c1`: the activity change, negative = cytotoxicity was -7.11% (inactive).
Still for that read-out and setting: the same measure for `O=C(C[C@@H]1CC[C@H](NC(=O)Cc2ccccn2)[C@H](CO)O1)NCCc1ccccc1`: -2.62% (inactive); for `Cc1noc(C)c1S(=O)(=O)Nc1ccc2c(c1)C(=O)N([C@H](C)CO)C[C@@H](C)[C@H](CN(C)Cc1ccccc1)OCCCC[C@H](C)O2`: -2.05% (inactive); for `COc1ccccc1NC(=O)N[C@@H]1CC[C@@H](CCn2cc(C3(O)CCCC3)nn2)O[C@H]1CO`: 9.21% (inactive).
Still for that read-out and setting: to `CCC(C)(C(=O)NC1CCCC1)N(C(C)=O)c1ccc(C)cc1` (stereo unspecified) belongs 9.31% (inactive).
Still for that read-out and setting: to `CC(=O)c1sc(NC(=O)c2cc(-c3ccccc3)nn2-c2ccccc2)nc1C` belongs 38.5% (inactive).
For `C[C@@H]1CN([C@H](C)CO)C(=O)c2c(c3ccccc3n2C)-c2ccccc2CO[C@H]1CN(C)S(=O)(=O)c1cccs1`, the activity change, negative = cytotoxicity was 1.01% (inactive).
The same measure, in the same setting: the same measure for `O=C(NC(=S)Nc1ccccc1N1CCOCC1)c1ccc(Br)cc1`: -8.37% (inactive); for `CCCNC(=O)N1[C@H](CO)[C@@H](c2ccc(C3=CCCC3)cc2)[C@@H]1CN(C)C(C)=O`: 37.6% (inactive); for `C[C@H](CO)N1C[C@H](C)[C@@H](CN(C)C(=O)Nc2ccc3c(c2)OCO3)Oc2ccc(NS(=O)(=O)c3cccs3)cc2C1=O`: -1.88% (inactive).
Still for that read-out and setting: to `O=C(C[C@@H]1CC[C@@H]2[C@H](COC[C@H](O)CN2Cc2cccc(C(F)(F)F)c2)O1)NCc1ccccc1` belongs 4.02% (inactive).
On the same count and under the same terms, to `O=C(Cc1ccccc1)N[C@H]1C=C[C@@H](CC(=O)N2CCOCC2)O[C@@H]1CO` belongs -14.2% (inactive).
Take `C[C@@H]1CN([C@@H](C)CO)C(=O)c2cc(-c3cncnc3)cnc2O[C@H]1CN(C)C(=O)Cc1ccccc1`: the activity change, negative = cytotoxicity was -0.143% (inactive).
On to `C[C@H]1CN([C@@H](C)CO)C(=O)Cc2cc(NS(=O)(=O)c3ccc(F)cc3)ccc2O[C@@H]1CN(C)S(=O)(=O)c1ccc(F)cc1`, for which the activity change, negative = cytotoxicity is -11.2% (inactive).
Regarding `COCCNC(=O)C[C@H]1C=C[C@H](NS(=O)(=O)c2ccc(C)cc2)[C@@H](CO)O1`, the activity change, negative = cytotoxicity is -8.29% (inactive).
On the same count and under the same terms, the same measure for `CC(C)C#Cc1ccc2c(c1)O[C@H](CN(C)C(=O)Cc1ccccn1)[C@H](C)CN([C@H](C)CO)S2(=O)=O`: -25.6% (inactive).
On to `Cc1cccc(C)c1NC(=O)CN(C)C(=O)C1CCCCC1`, for which the activity change, negative = cytotoxicity was -11.8% (inactive).
Consider `COc1cccc(-c2cn(CC[C@@H]3CC[C@H](NC(C)=O)[C@@H](CO)O3)nn2)c1`, for which the activity change, negative = cytotoxicity was 8.26% (inactive).
Take `Cc1cc(C)c(NC(=O)C(C)N2CCCCCC2)c(C)c1` (stereo unspecified): the activity change, negative = cytotoxicity is 16.2% (inactive).
On the same count and under the same terms, to `CCc1ccc(C(C)NC(=S)NCc2ccc(F)cc2)cc1` (stereo unspecified) belongs 17.2% (inactive); to `C[C@@H]1CN([C@H](C)CO)C(=O)c2cc(-c3cccc(F)c3)cnc2O[C@H]1CN(C)Cc1ccccc1`, -7.8% (inactive).
Still for that read-out and setting: to `CCc1ccc(NC(=O)[C@H](C)NC(=O)C2CCN(C(=O)[C@@H](N)C(C)C)CC2)cc1` belongs -17.1% (inactive); to `C[C@@H](O)C#Cc1ccc([C@@H]2[C@H](CO)N3CCCCN(CC4CC4)C[C@@H]23)cc1`, -28.3% (inactive); to `CCC(=O)Nc1ccc2c(c1)C(=O)N(C)C[C@H](OC)[C@@H](C)CN[C@H](C)CO2`, 29.1% (inactive).
On to `Cc1ccccc1NC(=O)C(NC1CCCCC1)C(C)C` (stereo unspecified), for which the activity change, negative = cytotoxicity is -12.2% (inactive).
With `Cc1cc(C(=O)Nc2cccc3c2O[C@H](CN(C)S(=O)(=O)c2ccccc2)[C@H](C)CN([C@H](C)CO)C3=O)n(C)n1`, the activity change, negative = cytotoxicity was 16.8% (inactive).
On the same count and under the same terms, the same measure for `C/C=C/c1ccc([C@@H]2[C@@H](CO)N3CCCCN(C(=O)Nc4ccc(OC)cc4)C[C@H]23)cc1`: 48.4% (inactive).
In the case of `COc1cccc(-c2ccc3c(c2)[C@H]2[C@H](CCN2C(=O)Cc2ccncc2)[C@H](CO)N3C)c1`, the activity change, negative = cytotoxicity was 125% (inactive).
The same measure, in the same setting: to `CCC(=O)N(C)C[C@H]1Oc2cc(C#CC(C)(C)O)ccc2S(=O)(=O)N([C@H](C)CO)C[C@@H]1C` belongs 41.1% (inactive).
Same read-out and setting: the same measure for `CCCN1C[C@H](C)[C@@H](OC)CN(C)C(=O)c2cc(NC(=O)c3cccc(F)c3)ccc2OC[C@H]1C`: 10.2% (inactive).
Consider `CCCNC(=O)C[C@H]1CC[C@H]2[C@@H](COC[C@@H](O)CN2S(=O)(=O)c2ccc(Oc3ccccc3)cc2)O1`, for which the activity change, negative = cytotoxicity was -8.05% (inactive).
For the molecule `CCCCN1C(=S)NC[C@@H]1Cc1ccccc1`, the activity change, negative = cytotoxicity is 6.24% (inactive).
Still for that read-out and setting: the same measure for `COCC#Cc1cnc2c(c1)C(=O)N([C@H](C)CO)C[C@@H](C)[C@@H](CN(C)C(=O)Nc1ccc(OC)cc1)O2`: -11.3% (inactive).
On the same count and under the same terms, to `CNC[C@H]1Oc2c(NS(=O)(=O)c3cccs3)cccc2C(=O)N([C@H](C)CO)C[C@@H]1C` belongs -26.9% (inactive).
`CC(C)NC(=O)Nc1ccc2c(c1)C(=O)N([C@@H](C)CO)C[C@@H](C)[C@H](CN(C)Cc1ccncc1)OCCCC[C@@H](C)O2`: the activity change, negative = cytotoxicity is 75.6% (inactive).
Regarding `Fc1ccccc1NC(=S)NCCc1cccc(Cl)c1`, the activity change, negative = cytotoxicity was 1.09% (inactive).
The same measure, in the same setting: to `C[C@H](CO)N1C[C@H](C)[C@@H](CN(C)CC2CCOCC2)Oc2ncc(C#Cc3ccc(F)cc3)cc2C1=O` belongs -11.1% (inactive); to `C[C@@H]1CCCCO[C@H](CN(C)S(=O)(=O)c2cccs2)[C@@H](C)CN([C@@H](C)CO)C(=O)c2cc(NC(=O)CCC(F)(F)F)ccc2O1`, 0.337% (inactive); to `CC=Cc1ccc2n(c1=O)C[C@@H]1[C@@H](CO)[C@H](C(=O)N3CCCCC3)N(Cc3ccccc3)[C@H]21` (mixture of isomers), 11.7% (inactive).
The same measure, in the same setting: the same measure for `COc1ccc(CN(C)C[C@H]2Oc3ccc(NS(C)(=O)=O)cc3CC(=O)N([C@@H](C)CO)C[C@H]2C)cc1`: -1.35% (inactive); for `Cc1ccc(NC(=O)C2CCC(=O)N2)cc1C` (stereo unspecified): -5.26% (inactive); for `O=C(c1cc(Br)ccc1Cl)N1CCN(c2ccccn2)CC1`: -6.43% (inactive).
The same measure, in the same setting: the same measure for `Cc1noc(C)c1NC(=O)Nc1cccc2c1O[C@H](CN(C)S(=O)(=O)c1cn(C)cn1)[C@H](C)CN([C@H](C)CO)C2=O`: -29.5% (inactive); for `COCC(=O)N1C[C@H](C)[C@H](OC)CN(C)C(=O)c2ccc(NC(=O)NC(C)C)cc2OC[C@@H]1C`: 37.2% (inactive); for `COc1cccc(S(=O)(=O)N2C[C@@H](O)COC[C@H]3O[C@H](CC(=O)N4CCN(C)CC4)CC[C@@H]32)c1`: -1.64% (inactive).
On to `O=C(C[C@H]1CC[C@H](NC(=O)Nc2ccc(C(F)(F)F)cc2)[C@H](CO)O1)NCc1cccc(F)c1`, for which the activity change, negative = cytotoxicity is 11.3% (inactive).

The same test, now with this note: HEK293T viability, ATP luminescence (CellTiter-Glo), 48 h; at 35 µM (top of the series).
With `Cc1cc(C)c(N2CCCC2C(=O)Nc2cccc(C(F)(F)F)c2)c(C)c1` (stereo unspecified), the activity change, negative = cytotoxicity was -7.11% (inactive).
`O=C(NC(=S)NCC1COc2ccccc2O1)c1ccc(Cl)cc1` (stereo unspecified): the activity change, negative = cytotoxicity is -9.32% (inactive).

Still in this test, the particulars now being: HEK293T viability, ATP luminescence (CellTiter-Glo), 48 h; at 38 µM (top of the series).
With `Cc1ccc(NC(=O)C2(C)CCN2C(=O)CC2CCCC2)cc1` (stereo unspecified), the activity change, negative = cytotoxicity is -16.5% (inactive).

The same test, now with this note: HEK293T viability, ATP luminescence (CellTiter-Glo), 48 h; at 42 µM (top of the series).
Consider `CCc1ccc(NC(=O)C2NC(=O)CC2c2ccccc2)cc1` (stereo unspecified), for which the activity change, negative = cytotoxicity is -46.7% (inactive).

The test is the same for the next values; noted with them: HEK293T viability, ATP luminescence (CellTiter-Glo), 48 h; at 46 µM (top of the series).
Take `CCC(C)(C(=O)Nc1cccc(C)c1)N1CCC1=O` (stereo unspecified): the activity change, negative = cytotoxicity is 0.095% (inactive).

(Values after PubChem BioAssay AID687005 (Broad Institute, 2013).)
